According to patent US20240294499A1, “TARGETED PROTEIN DEGRADATION USING BIFUNCTIONAL COMPOUNDS THAT BIND UBIQUITIN LIGASE AND TARGET MCL-1 PROTEIN” (Captor Therapeutics S.A., priority 2021, published 2024):

Tests used:
MV-4-11 cells = assay: Cell viability assay (CellTiter-Glo), MV-4-11; type: cell-based; conditions: Homo sapiens, MV4-11, 24 hours incubation, 1% FBS, read-out: Average pIC50 by molecule MV-4-11 (converted)
In short: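 Luminescent ATP readout (CellTiter-Glo) at 24 hours measured viability, expressed relative to DMSO-treated wells. Compound was added directly to the medium as a 9–12-point threefold series starting at 30 uM, at 0.5% final DMSO. The medium contained FBS reduced to 1%.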

[1] = molecular target: [MCL-1]-[compound of formula (I)]-[CRBN/DDB1] complex (Homo sapiens, UniProt Q07820+Q96SW2); assay: AlphaLISA dose response ternary complex formation assay; type: binding; conditions: read-out: AlphaLISA dose response Average pEC50 by molecule (converted)
Chain of [MCL-1]-[compound of formula (I)]-[CRBN/DDB1] complex (Q07820 whole entry): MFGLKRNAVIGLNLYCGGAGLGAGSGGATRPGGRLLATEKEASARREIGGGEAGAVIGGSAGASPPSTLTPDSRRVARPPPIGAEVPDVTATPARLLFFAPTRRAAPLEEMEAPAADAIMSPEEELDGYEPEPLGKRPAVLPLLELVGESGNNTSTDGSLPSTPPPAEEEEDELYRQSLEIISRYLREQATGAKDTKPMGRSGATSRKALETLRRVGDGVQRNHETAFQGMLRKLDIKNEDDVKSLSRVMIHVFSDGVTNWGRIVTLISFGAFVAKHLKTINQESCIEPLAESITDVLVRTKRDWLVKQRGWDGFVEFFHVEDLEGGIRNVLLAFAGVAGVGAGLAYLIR
Chain of [MCL-1]-[compound of formula (I)]-[CRBN/DDB1] complex (Q96SW2 whole entry): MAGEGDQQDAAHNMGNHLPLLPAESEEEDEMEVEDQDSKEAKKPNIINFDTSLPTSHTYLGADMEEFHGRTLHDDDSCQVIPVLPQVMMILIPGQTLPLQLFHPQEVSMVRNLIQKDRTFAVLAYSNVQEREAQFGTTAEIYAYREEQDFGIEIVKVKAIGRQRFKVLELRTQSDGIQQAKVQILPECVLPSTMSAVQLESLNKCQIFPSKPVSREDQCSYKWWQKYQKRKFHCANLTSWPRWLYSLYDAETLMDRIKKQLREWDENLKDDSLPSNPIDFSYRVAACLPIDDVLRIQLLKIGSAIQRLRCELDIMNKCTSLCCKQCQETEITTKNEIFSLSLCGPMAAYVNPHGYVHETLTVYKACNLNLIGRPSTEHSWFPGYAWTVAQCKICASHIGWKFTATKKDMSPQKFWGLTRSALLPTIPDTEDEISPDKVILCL
Chain of [MCL-1]-[compound of formula (I)]-[CRBN/DDB1] complex (Q16531 whole entry partner): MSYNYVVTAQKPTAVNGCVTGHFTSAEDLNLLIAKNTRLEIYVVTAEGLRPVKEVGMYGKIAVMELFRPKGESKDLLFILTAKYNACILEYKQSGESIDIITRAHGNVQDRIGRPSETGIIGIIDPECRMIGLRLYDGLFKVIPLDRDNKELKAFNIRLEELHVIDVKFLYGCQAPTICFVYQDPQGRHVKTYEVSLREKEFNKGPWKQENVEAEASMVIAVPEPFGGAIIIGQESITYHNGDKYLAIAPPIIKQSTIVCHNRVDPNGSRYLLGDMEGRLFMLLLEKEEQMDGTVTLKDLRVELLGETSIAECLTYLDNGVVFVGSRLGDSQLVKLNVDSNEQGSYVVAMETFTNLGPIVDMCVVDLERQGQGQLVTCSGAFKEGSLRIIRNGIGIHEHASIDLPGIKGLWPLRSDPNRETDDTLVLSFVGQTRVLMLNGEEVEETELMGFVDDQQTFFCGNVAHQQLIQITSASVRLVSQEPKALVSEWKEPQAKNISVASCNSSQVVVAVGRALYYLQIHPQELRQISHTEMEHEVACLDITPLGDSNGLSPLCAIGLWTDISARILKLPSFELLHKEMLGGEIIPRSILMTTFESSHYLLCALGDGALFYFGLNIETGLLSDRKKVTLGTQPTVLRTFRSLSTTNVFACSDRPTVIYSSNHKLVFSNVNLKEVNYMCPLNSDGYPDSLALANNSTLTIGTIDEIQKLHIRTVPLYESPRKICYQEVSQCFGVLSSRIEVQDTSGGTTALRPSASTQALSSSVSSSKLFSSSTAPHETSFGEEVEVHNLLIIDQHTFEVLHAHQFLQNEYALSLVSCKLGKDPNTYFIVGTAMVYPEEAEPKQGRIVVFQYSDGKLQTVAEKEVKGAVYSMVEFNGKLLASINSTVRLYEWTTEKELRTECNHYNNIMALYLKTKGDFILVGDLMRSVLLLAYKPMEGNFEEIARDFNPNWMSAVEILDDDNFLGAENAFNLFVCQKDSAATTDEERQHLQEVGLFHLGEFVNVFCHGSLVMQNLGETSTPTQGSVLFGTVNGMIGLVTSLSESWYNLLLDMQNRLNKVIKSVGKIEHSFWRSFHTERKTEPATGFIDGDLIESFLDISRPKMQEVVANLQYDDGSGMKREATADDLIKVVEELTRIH
In short: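 EC50 comes from dose–response of AlphaLISA luminescence (excitation 680, emission 615 nm), normalised between DMSO background and an internal positive control, with concentrations past the hook point dropped. Ternary complex formed by mixing bead-bound biotin-hMCL-1 and His-CRBN/DDB1 (protein solutions 40 and 200 nM) with compound in 2% DMSO, 30 min, 25 °C.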

ARH-77 cells = assay: Cell viability assay (CellTiter-Glo), ARH-77; type: cell-based; conditions: Homo sapiens, ARH-77, 24 hours incubation, 1% FBS, read-out: Average pIC50 by molecule ARH-77 (converted)
From the text: The effect of various compounds of the invention on the viability of OPM-2, MV-4-11 and ARH-77 cell lines was investigated, using the CTG protocol described below.
OPM-2 and MV-4-11 cell lines are derived from multiple myeloma and acute myeloid leukaemia, respectively. Both cell lines are described in the literature as MCL-1 dependent lines, as opposed to lymphoblast-like ARH-77 cell line, which is described as independent of MCL-1 (Tron A E et al. Nat Commun. 2018; 9: 5341; Caenepeel S et al. Cancer Discov. 2018 December; 8(12):1582-1597).
Cells (OPM-2, MV-4-11 or ARH-77) were seeded on […] in a growth medium with FBS reduced to 1%. Next, compound stocks were pre-diluted in DMSO and added directly to the cells growth medium (final DMSO concentration: 0.5%). Compound concentrations used in this assay: 1/3 dilutions starting at 30 uM (9 to 12 points).
After 24 hours of incubation, cell viability was evaluated using CellTiter-Glo Luminescent Cell Viability Assay (Promega, cat #G7572). Luminescence signal was measured using a CLARIOstar Plus Multi-Mode Microplate Reader (574-590 nm).
Results were normalized to DMSO control.

IC50 (MV-4-11 cells) [nM]	EC50 [1] [nM]	Structure (SMILES)	IC50 (ARH-77 cells) [nM]
≤ 100	< 10	Cc1nn(C)c(C)c1-c1c(Cl)ccc2c(CCCOc3cccc4ccccc34)c(C(=O)O)n(CCN3CCN(C(=O)COc4cccc5c4CN(C4CCC(=O)NC4=O)C5=O)CC34CC4)c12 (stereo not drawn) [Compound 292, 6-Chloro-1-(2-(7-(2-((2-(2,6-dioxopiperidin-3-yl)-1-oxoisoindolin-4-yl)oxy)acetyl)-4,7-diazaspiro[2.5]octan-4-yl)ethyl)-3-(3-(naphthalen-1-yloxy)propyl)-7-(1,3,5-trimethyl-1H-pyrazol-4-yl)-1H-indole-2-carboxylic acid]	> 10000
≤ 31.6	< 100	Cc1nn(C)c(C)c1-c1c(Cl)ccc2c(CCCOc3cccc4cc(F)ccc34)c(C(=O)O)n(CCN3CCN(C(=O)[C@@H](C)Oc4cccc5c4C(=O)N(C4CCC(=O)NC4=O)C5=O)CC3)c12 (stereo partly drawn) [Compound 315, 6-Chloro-1-(2-{4-[(2R)-2-{[2-(2,6-dioxopiperidin-3-yl)-1,3-dioxo-2,3-dihydro-1H-isoindol-4-yl]oxy}propanoyl]piperazin-1-yl}ethyl)-3-{3-[(6-fluoronaphthalen-1-yl)oxy]propyl}-7-(1,3,5-trimethyl-1H-pyrazol-4-yl)-1H-indole-2-carboxylic acid]	> 3160
≤ 316	< 100	Cc1nn(C)c(C)c1-c1c(Cl)ccc2c(CCCOc3cccc4cc(F)ccc34)c(C(=O)O)n(CCCOCCOc3cccc4c3CN(C3CCC(=O)NC3=O)C4=O)c12 (stereo not drawn) [Compound 329, 6-Chloro-1-[3-(2-{[2-(2,6-dioxopiperidin-3-yl)-1-oxo-2,3-dihydro-1H-isoindol-4-yl]oxy}ethoxy)propyl]-3-{3-[(6-fluoronaphthalen-1-yl)oxy]propyl}-7-(1,3,5-trimethyl-1H-pyrazol-4-yl)-1H-indole-2-carboxylic acid]	> 10000
≤ 100	< 100	Cc1nn(C)c(C)c1-c1c(Cl)ccc2c(CCCOc3cccc4cc(F)ccc34)c(C(=O)O)n(CCN3CCN(C(=O)COc4c(Cl)ccc5c4CN(C4CCC(=O)NC4=O)C5=O)CC3)c12 (stereo not drawn) [Compound 345, 6-Chloro-1-{2-[4-(2-{[5-chloro-2-(2,6-dioxopiperidin-3-yl)-1-oxo-2,3-dihydro-1H-isoindol-4-yl]oxy}acetyl)piperazin-1-yl]ethyl}-3-{3-[(6-fluoronaphthalen-1-yl)oxy]propyl}-7-(1,3,5-trimethyl-1H-pyrazol-4-yl)-1H-indole-2-carboxylic acid]	> 10000
≤ 316	< 10	Cc1nn2c(c1-c1c(F)ccc3c(CCCOc4cccc5cc(F)ccc45)c(C(=O)O)n(CCN4CCN(C(=O)COc5cccc6c5CN(C5CCC(=O)NC5=O)C6=O)CC4)c13)OCC2 (stereo not drawn) [Compound 351, 1-{2-[4-(2-{[2-(2,6-dioxopiperidin-3-yl)-1-oxo-2,3-dihydro-1H-isoindol-4-yl]oxy}acetyl)piperazin-1-yl]ethyl}-6-fluoro-3-{3-[(6-fluoronaphthalen-1-yl)oxy]propyl}-7-{6-methyl-2H,3H-pyrazolo[3,2-b][1,3]oxazol-7-yl}-1H-indole-2-carboxylic acid]	> 31600

Continued, compound first:

Structure (SMILES)	IC50 (MV-4-11 cells) [nM]	EC50 [1] [nM]	IC50 (ARH-77 cells) [nM]
Cc1nn(C)c(C)c1-c1c(Cl)ccc2c(CCCOc3cccc4cc(F)ccc34)c(C(=O)O)n(CCN3CCN(C(=O)Cn4c(C)nc5c(C(=O)NC6CCC(=O)NC6=O)cc(Cl)cc54)CC3)c12 (stereo not drawn) [Compound 276, 6-Chloro-1-(2-(4-(2-(6-chloro-4-((2,6-dioxopiperidin-3-yl)carbamoyl)-2-methyl-1H-benzo[d]imidazol-1-yl)acetyl)piperazin-1-yl)ethyl)-3-(3-((6-fluoronaphthalen-1-yl)oxy)propyl)-7-(1,3,5-trimethyl-1H-pyrazol-4-yl)-1H-indole-2-carboxylic acid]	≤ 100	< 100	> 10000
Cc1nc2c(NCC(=O)N3CCN(CCn4c(C(=O)O)c(CCCOc5cccc6cc(F)ccc56)c5ccc(Cl)c(-c6c(C)nn(C)c6C)c54)CC3)cccc2cc1C1CCC(=O)NC1=O (stereo not drawn) [Compound 284, 6-Chloro-1-{2-[4-(2-{[3-(2,6-dioxopiperidin-3-yl)-2-methylquinolin-8-yl]amino}acetyl)piperazin-1-yl]ethyl}-3-{3-[(6-fluoronaphthalen-1-yl)oxy]propyl}-7-(1,3,5-trimethyl-1H-pyrazol-4-yl)-1H-indole-2-carboxylic acid]	≤ 100	< 100	> 3160
Cc1nn(C)c(C)c1-c1c(Cl)ccc2c(CCCOc3cccc4cc(F)ccc34)c(C(=O)O)n(CCN3CCC4CN(C(=O)CNc5cccc6c5C(=O)N(C5CCC(=O)NC5=O)C6=O)CC43)c12 (stereo not drawn) [Compound 300, 6-Chloro-1-(2-(5-((2-(2,6-dioxopiperidin-3-yl)-1,3-dioxoisoindolin-4-yl)glycyl)hexahydropyrrolo[3,4-b]pyrrol-1(2H)-yl)ethyl)-3-(3-((6-fluoronaphthalen-1-yl)oxy)propyl)-7-(1,3,5-trimethyl-1H-pyrazol-4-yl)-1H-indole-2-carboxylic acid]	≤ 100	< 10	> 3160
Cc1nn(C)c(C)c1-c1c(Cl)ccc2c(CCCOc3cccc4cc(F)ccc34)c(C(=O)O)n(CCCCNC(=O)CNc3cccc4c3C(=O)N(C3CCC(=O)NC3=O)C4=O)c12 (stereo not drawn) [Compound 325, 6-Chloro-1-[4-(2-{[2-(2,6-dioxopiperidin-3-yl)-1,3-dioxo-2,3-dihydro-1H-isoindol-4-yl]amino}acetamido)butyl]-3-{3-[(6-fluoronaphthalen-1-yl)oxy]propyl}-7-(1,3,5-trimethyl-1H-pyrazol-4-yl)-1H-indole-2-carboxylic acid]	≤ 100	< 10	> 10000
Cc1nn(C)c(C)c1-c1c(Cl)ccc2c(CCCOc3cccc4cc(F)ccc34)c(C(=O)O)n(CCN3CCC(CN4CCN(c5cc6c(cc5F)C(=O)N(C5CCC(=O)NC5=O)C6=O)CC4)CC3)c12 (stereo not drawn) [Compound 331, 6-Chloro-1-(2-(4-((4-(2-(2,6-dioxopiperidin-3-yl)-6-fluoro-1,3-dioxoisoindolin-5-yl)piperazin-1-yl)methyl)piperidin-1-yl)ethyl)-3-(3-((6-fluoronaphthalen-1-yl)oxy)propyl)-7-(1,3,5-trimethyl-1H-pyrazol-4-yl)-1H-indole-2-carboxylic acid]	≤ 316	< 100	> 10000
Cc1nn(C)c(C)c1-c1c(Cl)ccc2c(CCCOc3cccc4cc(F)ccc34)c(C(=O)O)n(CCN3CCC(CN4CCN(c5cccc6c5C(=O)N(C5CCC(=O)NC5=O)C6=O)CC4)CC3)c12 (stereo not drawn) [Compound 332, 6-Chloro-1-(2-(4-((4-(2-(2,6-dioxopiperidin-3-yl)-1,3-dioxoisoindolin-4-yl)piperazin-1-yl)methyl)piperidin-1-yl)ethyl)-3-(3-((6-fluoronaphthalen-1-yl)oxy)propyl)-7-(1,3,5-trimethyl-1H-pyrazol-4-yl)-1H-indole-2-carboxylic acid]	≤ 1000	< 100	> 31600
